17 compounds from US8772277B2, “Nitrogen-containing heterocyclic compound” (Takeda Pharmaceutical Company Limited, priority 2011, dated 2014) can be followed below.

For orientation: inhibition means the drop in the measured response relative to a control, in per cent.

Structures can show the parent of a compound that is named as a salt.

The target of assay [1] is T1, fusion protein containing GAL4-DNA-binding domain and ERR full-length (Homo sapiens, UniProt P11474).
T1 construct: expressed in transfected cells; host or cells: 293T cells
T1 sequence (P11474 1-423): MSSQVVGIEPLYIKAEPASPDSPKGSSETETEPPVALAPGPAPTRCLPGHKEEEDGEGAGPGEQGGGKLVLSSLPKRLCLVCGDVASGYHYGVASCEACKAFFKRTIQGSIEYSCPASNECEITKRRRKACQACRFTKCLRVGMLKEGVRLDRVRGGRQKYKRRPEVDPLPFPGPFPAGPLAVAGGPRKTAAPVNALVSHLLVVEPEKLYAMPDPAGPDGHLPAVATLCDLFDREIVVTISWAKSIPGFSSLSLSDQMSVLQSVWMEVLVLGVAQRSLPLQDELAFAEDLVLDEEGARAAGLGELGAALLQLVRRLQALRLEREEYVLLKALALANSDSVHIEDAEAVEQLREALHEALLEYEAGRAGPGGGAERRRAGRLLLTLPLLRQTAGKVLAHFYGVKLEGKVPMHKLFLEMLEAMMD
Kind of assay: Reporter assay system using 293T cells (GAL4-ERR luciferase, inverse agonist activity). Conditions: compound final concentration 3 μM, no compound = 0%, 10 μM XCT-790 = 100%; for inhibition at 3 µM: HEK-293T, read-out: inhibition rate (%) at 3 μM. It is filed as cell-based. The protocol: Experimental Example 2 Compound Evaluation in Reporter Assay System Using 293T Cells
293T cells derived from human kidney were seeded in a 150 cm^2 flask by 6,000,000 cells, and cultured in a medium (DMEM medium containing 10% inactivated Fetal Bovine Serum sterile filtered (FBS), […] Gentamicin, 10 mM HEPES buffer (pH 7.4)) at 37° C. in the presence of 5% CO2 for 1 day.
Then, vector DNA having a gene encoding a fusion protein, containing GAL4-DNA-binding domain and ERR full-length and a vector DNA wherein luciferase gene is fused at the downstream of GAL4-binding-sequence were cotransfected by a lipofection method, and the cells were cultured at 37° C. in the presence of 5% CO2 for 1 day. The cells were recovered, sown in a 384 well plate by 15,000 cells, and cultured at 37° C. in the presence of 5% CO2 for 3 hrs. Furthermore, 50 μM N-[5-(trifluoromethyl)-1,3,4-thiadiazol-2-yl]-2-cyano-3-[3-methoxy-4-[2,4-di(trifluoromethyl)benzyloxy]phenyl]propenamide (XCT-790) (final concentration 10 μM) or 15 μM compound (final concentration 3 μM) was added, and the cells were cultured at 37° C. in the presence of 5% CO2 for 1 day. The luciferase activity was measured by using multiplate reader Envision (Perkin Elmer Inc.). The inverse agonist activity of the compound was calculated in percentage with the luciferase activity inhibited by no addition of compound as 0%, and with addition of final concentration 10 μM of XCT-790 as 100%.
For orientation: A reporter such as luciferase makes a cellular process visible.

Assay [2] addresses T2, GST-ERR-α ligand-binding domain (Homo sapiens, UniProt P11474).
T2 sequence (P11474 193-421 limits assumed): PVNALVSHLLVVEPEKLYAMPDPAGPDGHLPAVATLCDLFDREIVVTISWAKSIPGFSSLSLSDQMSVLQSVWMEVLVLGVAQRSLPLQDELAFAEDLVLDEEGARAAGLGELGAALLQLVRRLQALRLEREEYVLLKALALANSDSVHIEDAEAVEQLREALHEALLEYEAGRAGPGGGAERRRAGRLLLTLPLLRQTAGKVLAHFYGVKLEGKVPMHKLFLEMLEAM
The assay can be described thus: HTRF assay system using ERR-α ligand-binding domain (inverse agonist activity, biotinylated SRC-1 (676-700) peptide). It is filed as biochemical. Conditions: compound final concentration 30 μM, 665/620 ratio, no compound = 0%, 10 μM XCT-790 = 100%; for inhibition at 30 µM: read-out: inhibition rate (%) at 30 μM. The protocol:
Experimental Example 1 Compound Evaluation in HTRF Assay System Using ERR-α Ligand-Binding Domain
An assay buffer (25 mM HEPES, 100 mM NaCl, 1 mM DTT, 0.1% BSA) containing 5 nM GST-ERR-α ligand-binding domain (final concentration 1.25 nM) was added to a 384 well plate, then 40 μM N-[5-(trifluoromethyl)-1,3,4-thiadiazol-2-yl]-2-cyano-3-[3-methoxy-4-[2,4-di(trifluoromethyl)benzyloxy]phenyl]propenamide (XCT-790) (final concentration 10 μM), or 120 μM compound (final concentration 30 μM) was added. Furthermore, an assay buffer containing XL665 conjugated Streptavidin, Eu^3+ criptate conjugated GST antibody and 200 nM biotinylated SRC-1 (676-700) (final concentration 100 nM) was added, and the mixture was reacted at room temperature for 2 hr. Using Multiplate reader Envision (Perkin Elmer Inc.), after excitation at 320 nm, fluorescence values at 620 nm and 665 nm were measured. The inverse agonist activity of the compound was calculated in percentage with the 665/620 ratio value inhibited by no addition of compound as 0%, and with addition of final concentration 10 μM of XCT-790 as 100%.
Background: Time-resolved FRET reads energy transfer from a long-lived donor to a nearby acceptor.

On to `CNC1=NC(=O)S/C1=C\C1CCN(Cc2ccc(C(F)(F)F)cc2C(F)(F)F)CC1` [Example 3, (5Z)-5-({1-[2,4-bis(trifluoromethyl)benzyl]piperidin-4-yl}methylidene)-4-(methylamino)-1,3-thiazol-2(5H)-one], for which the inhibition at 3 µM in assay [1] was 88%.
As for `O=C1N=C(NCCOCCO)/C(=C/C2CCN(Cc3ccc(C(F)(F)F)cc3C(F)(F)F)CC2)S1` [Example 8, (5Z)-5-({1-[2,4-bis(trifluoromethyl)benzyl]piperidin-4-yl}methylidene)-4-{[2-(2-hydroxyethoxy)ethyl]amino}-1,3-thiazol-2(5H)-one], the “inhibition rate (%) at 3 μM” value in assay [1] was 87%. Besides, the “inhibition rate (%) at 30 μM” value in assay [2] came out at 97%.
As to `CCN(CC)CCNC1=NC(=O)S/C1=C\C1CCN(Cc2ccc(C(F)(F)F)cc2C(F)(F)F)CC1` [Example 9, (5Z)-5-({1-[2,4-bis(trifluoromethyl)benzyl]piperidin-4-yl}methylidene)-4-{[2-(diethylamino)ethyl]amino}-1,3-thiazol-2(5H)-one dihydrochloride], the inhibition at 3 µM in assay [1] is 88%. In addition, in assay [2], the inhibition at 30 µM came to 107%.
For `CNC1=NC(=O)S/C1=C\[C@@H]1C[C@H]2CC[C@@H](C1)N2Cc1ccc(C(F)(F)F)cc1C(F)(F)F` [Example 15, (5Z)-5-({(3-exo)-8-[2,4-bis(trifluoromethyl)benzyl]-8-azabicyclo[3.2.1]oct-3-yl}methylidene)-4-(methylamino)-1,3-thiazol-2(5H)-one] the same measures were 88% and 102%.
For `C#CCNC1=NC(=O)S/C1=C\C1CCN(Cc2ccc(C(F)(F)F)cc2C(F)(F)F)CC1` [Example 16, (5Z)-5-({1-[2,4-bis(trifluoromethyl)benzyl]piperidin-4-yl}methylidene)-4-(prop-2-yn-1-ylamino)-1,3-thiazol-2(5H)-one hydrochloride] the same measures were 89% and 112%.
For `O=C1N=C(NC2COC2)/C(=C/C2CCN(Cc3ccc(C(F)(F)F)cc3C(F)(F)F)CC2)S1` [Example 20, (5Z)-5-({1-[2,4-bis(trifluoromethyl)benzyl]piperidin-4-yl}methylidene)-4-(oxetan-3-ylamino)-1,3-thiazol-2(5H)-one] the same measures were 95% and 105%.
Take `C#CCNC1=NC(=O)S/C1=C\C1CCN(Cc2ccc(Cl)cc2C(F)(F)F)CC1` [Example 24, (5Z)-5-({1-[4-chloro-2-(trifluoromethyl)benzyl]piperidin-4-yl}methylidene)-4-(prop-2-yn-1-ylamino)-1,3-thiazol-2(5H)-one fumarate]: the inhibition at 3 µM in assay [1] worked out at 92%. Moreover, the inhibition at 30 µM in assay [2] turned out to be 105%.
In the case of `CC(C)(O)CNC1=NC(=O)S/C1=C\C1CCN(Cc2ccc(C(F)(F)F)cc2C(F)(F)F)CC1` [Example 31, (5Z)-5-({1-[2,4-bis(trifluoromethyl)benzyl]piperidin-4-yl}methylidene)-4-[(2-hydroxy-2-methylpropyl)amino]-1,3-thiazol-2(5H)-one], the “inhibition rate (%) at 3 μM” value in assay [1] was 87%. In assay [2], the “inhibition rate (%) at 30 μM” value is on record as 101%.
On to `CNC1=NC(=O)S/C1=C\C1CCN(Cc2ccc(C(F)(F)F)cc2C(F)(F)F)CC1` [Example 37, (5Z)-5-({1-[2,4-bis(trifluoromethyl)benzyl]piperidin-4-yl}methylidene)-4-(methylamino)-1,3-thiazol-2(5H)-one fumarate], for which the inhibition at 30 µM in assay [2] worked out at 109%.
Regarding `COCCOCCNC1=NC(=O)S/C1=C\C1CCN(Cc2ccc(C(F)(F)F)cc2C(F)(F)F)CC1` [Example 39, (5Z)-5-({1-[2,4-bis(trifluoromethyl)benzyl]piperidin-4-yl}methylidene)-4-{[2-(2-methoxyethoxy)ethyl]amino}-1,3-thiazol-2(5H)-one], the inhibition at 3 µM in assay [1] amounted to 85%. The inhibition at 30 µM in assay [2] came to 106%.
In the case of `C#CCNC1=NC(=O)S/C1=C\C1CCN(Cc2ccc(C#N)cc2C(F)(F)F)CC1` [Example 40, 4-[(4-{(Z)-[2-oxo-4-(prop-2-yn-1-ylamino)-1,3-thiazol-5(2H)-ylidene]methyl}piperidin-1-yl)methyl]-3-(trifluoromethyl)benzonitrile], the inhibition at 3 µM in assay [1] is 62%. Further, the inhibition at 30 µM in assay [2] was determined as 73%.
Consider `O=C1N=C(NC2CCOC2)/C(=C/C2CCN(Cc3ccc(C(F)(F)F)cc3C(F)(F)F)CC2)S1` (stereo not shown) [Example 43, (5Z)-5-({1-[2,4-bis(trifluoromethyl)benzyl]piperidin-4-yl}methylidene)-4-(tetrahydrofuran-3-ylamino)-1,3-thiazol-2(5H)-one 0.5 fumarate], for which the inhibition at 3 µM in assay [1] is 87%. Also, in assay [2], the inhibition at 30 µM turned out to be 106%.
On to `CCN(CC)CCOCCNC1=NC(=O)S/C1=C\C1CCN(Cc2ccc(C(F)(F)F)cc2C(F)(F)F)CC1` [Example 47, (5Z)-5-({1-[2,4-bis(trifluoromethyl)benzyl]piperidin-4-yl}methylidene)-4-({2-[2-(diethylamino)ethoxy]ethyl}amino)-1,3-thiazol-2(5H)-one ditosylate], for which the inhibition at 3 µM in assay [1] is 90%. In addition, in assay [2], the inhibition at 30 µM was found to be 108%.
In the case of `O=C1N=C(NCC(O)CO)/C(=C/C2CCN(Cc3ccc(C(F)(F)F)cc3C(F)(F)F)CC2)S1` (stereo not shown) [Example 56, (5Z)-5-({1-[2,4-bis(trifluoromethyl)benzyl]piperidin-4-yl}methylidene)-4-[(2,3-dihydroxypropyl)amino]-1,3-thiazol-2(5H)-one], the inhibition at 3 µM in assay [1] was 91%. Besides, the inhibition at 30 µM in assay [2] worked out at 106%.
Consider `CN(CCO)CCNC1=NC(=O)S/C1=C\C1CCN(Cc2ccc(C(F)(F)F)cc2C(F)(F)F)CC1` [Example 58, (5Z)-5-({1-[2,4-bis(trifluoromethyl)benzyl]piperidin-4-yl}methylidene)-4-({2-[(2-hydroxyethyl)(methyl)amino]ethyl}amino)-1,3-thiazol-2(5H)-one ½fumarate], for which the inhibition at 3 µM in assay [1] came out at 91%. For the same compound, the inhibition at 30 µM in assay [2] is 110%.
On to `C#CCNC1=NC(=O)S/C1=C\C1CCN(Cc2ccc(C(F)(F)F)cc2Cl)CC1` [Example 59, (5Z)-5-({1-[2-chloro-4-(trifluoromethyl)benzyl]piperidin-4-yl}methylidene)-4-(prop-2-yn-1-ylamino)-1,3-thiazol-2(5H)-one fumarate], for which the inhibition at 3 µM in assay [1] was found to be 67%. Also, the inhibition at 30 µM in assay [2] turned out to be 49%.
For `CC(C)(O)C#CCNC1=NC(=O)S/C1=C\C1CCN(Cc2ccc(C(F)(F)F)cc2C(F)(F)F)CC1` [Example 87, (5Z)-5-({1-[2,4-bis(trifluoromethyl)benzyl]piperidin-4-yl}methylidene)-4-[(4-hydroxy-4-methylpent-2-yn-1-yl)amino]-1,3-thiazol-2(5H)-one], in assay [1], the inhibition at 3 µM is 88%.
